Results reported in PubChem BioAssay AID248 (DTP/NCI, 2004).
Inconclusive results and toxic doses are left out. No stated cut-off is given here; in the data, active means T/C of 150% or more; inactive means T/C below 125%.

Tested on: L1210 leukemia ip in BDF1 mice, survival T/C
Experiment: NCI In Vivo Anticancer Drug Screen. Data for tumor model L1210 Leukemia (intraperitoneal) in B6D2F1 (BDF1) mice
Settings: endpoint: mean survival time, higher = longer survival
Summary of the method: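 Each compound was tested against a transplantable tumor grown in mice. The endpoint was survival, with treated animals benchmarked against vehicle controls as a simple ratio.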

Measured: T/C

CC1=C/C(=N/Nc2ccc([N+](=O)[O-])cc2[N+](=O)[O-])CCC1
inactive: dose: 50.0 mg/kg/injection, schedule: Q01DX009 (ip), vehicle: acetone 93 % of control | dose: 100.0 mg/kg/injection, schedule: Q01DX009 (ip), vehicle: acetone 88 % of control | dose: 100.0 mg/kg/injection, schedule: Q04DX003 (ip), vehicle: acetone 93 % of control | dose: 200.0 mg/kg/injection, schedule: Q04DX003 (ip), vehicle: acetone 86 % of control | dose: 400.0 mg/kg/injection, schedule: Q04DX003 (ip), vehicle: acetone 86 % of control

Cc1cccc(NC(=O)NC2CCC(CC3CCCCC3)CC2)c1 (configuration not stated)
inactive: dose: 100.0 mg/kg/injection, schedule: Q01DX009 (ip), vehicle: Klucel (hydroxypropylcellulose) (HPC) 106 % of control | dose: 100.0 mg/kg/injection, schedule: Q04DX003 (ip), vehicle: Klucel (hydroxypropylcellulose) (HPC) 97 % of control | dose: 200.0 mg/kg/injection, schedule: Q01DX009 (ip), vehicle: Klucel (hydroxypropylcellulose) (HPC) 97 % of control | dose: 200.0 mg/kg/injection, schedule: Q04DX003 (ip), vehicle: Klucel (hydroxypropylcellulose) (HPC) 101 % of control | dose: 400.0 mg/kg/injection, schedule: Q01DX009 (ip), vehicle: Klucel (hydroxypropylcellulose) (HPC) 95 % of control | dose: 400.0 mg/kg/injection, schedule: Q04DX003 (ip), vehicle: Klucel (hydroxypropylcellulose) (HPC) 101 % of control

Brc1cccc[n+]1-c1ccc2cc(-[n+]3ccccc3Br)ccc2c1
inactive: dose: 9.38 mg/kg/injection, schedule: Q01DX001 (ip), vehicle: other 100 % of control
